Reference: the supplement of paper PMC6045584
± gives the standard deviation of the averaged measurements.

Legend:
[1] = compound: CNCc1ccc(-c2[nH]c3cc(F)cc4c3c2CCNC4=O)cc1; experiment: surviving fraction relative to DMSO-only wells; higher = less growth inhibition; conditions: exposure time: 5 days
Procedure, shortened: (§1)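 In 384-well plates, 250–500 log-phase tumour cells per well were given 24 hours before five days of continuous exposure to inhibitors at 0.5, 1, 5, 10, 50, 100, 500 and 1000 nM. Surviving fraction is luminescence from CellTiter-Glo, normalised to the median of wells containing DMSO alone. Reading took place after 10 minutes at room temperature.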

XAV-939 = compound: Oc1nc(-c2ccc(C(F)(F)F)cc2)nc2c1CSCC2 [XAV-939]; experiment: as above; conditions: exposure time: 5 days
Procedure, shortened: as §1

CRIZOTINIB = compound: C[C@@H](Oc1cc(-c2cnn(C3CCNCC3)c2)cnc1N)c1c(Cl)ccc(F)c1Cl [CRIZOTINIB]; experiment: area under dose-response curve of surviving fraction (unscaled, Aref=0) (surviving fraction x log10(nM)); higher = more resistant; conditions: exposure time: 5 days; dose range 0.5-1000 nM
Procedure, shortened: (§2)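 Tumour cell lines in 384-well plates were exposed to eight inhibitor concentrations, from 0.5 to 1000 nM, for five days, and viability was read by CellTiter-Glo luminescence in three screens per line. Signals were normalised to DMSO-only wells, and 3-parameter logistic regression in the drc R package fitted dose-response survival curves to the surviving fractions. Area under the curve is given as the unscaled activity area. That area is taken over log10 dose with Aref = 0.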

DASATINIB = compound: Cc1nc(Nc2ncc(C(=O)Nc3c(C)cccc3Cl)s2)cc(N2CCN(CCO)CC2)n1 [DASATINIB]; experiment: as above; conditions: exposure time: 5 days; dose range 0.5-1000 nM
Procedure, shortened: as §2

TEMOZOLOMIDE = compound: Cn1nnc2c(C(N)=O)ncn2c1=O [TEMOZOLOMIDE]; experiment: as above; conditions: exposure time: 5 days; dose range 0.5-1000 nM
Procedure, shortened: as §2

MLN-4924 = compound: NS(=O)(=O)OC[C@@H]1C[C@@H](n2ccc3c(N[C@H]4CCc5ccccc54)ncnc32)C[C@@H]1O [MLN-4924]; experiment: as above; conditions: exposure time: 5 days; dose range 0.5-1000 nM
Procedure, shortened: as §2

Test System	surviving fraction ([1]; 0.5 nM)	surviving fraction ([1]; 1 nM)	surviving fraction ([1]; 5 nM)	surviving fraction ([1]; 10 nM)	surviving fraction ([1]; 50 nM)	surviving fraction ([1]; 100 nM)	surviving fraction ([1]; 500 nM)	surviving fraction ([1]; 1000 nM)	surviving fraction (XAV-939; 0.5 nM)	surviving fraction (XAV-939; 1 nM)	surviving fraction (XAV-939; 5 nM)	surviving fraction (XAV-939; 10 nM)	surviving fraction (XAV-939; 50 nM)	surviving fraction (XAV-939; 100 nM)	surviving fraction (XAV-939; 500 nM)	surviving fraction (XAV-939; 1000 nM)	area under dose-response curve (CRIZOTINIB)	area under dose-response curve (DASATINIB)	area under dose-response curve (TEMOZOLOMIDE)	area under dose-response curve (MLN-4924)
G292 BONE	0.998 ± 0.075	0.981 ± 0.037	1.05 ± 0.053	0.975 ± 0.012	0.9877 ± 0.0081	0.932 ± 0.021	0.8 ± 0.044	0.775 ± 0.035	0.788 ± 0.26	0.995 ± 0.045	0.96 ± 0.043	0.963 ± 0.066	0.818 ± 0.27	0.965 ± 0.04	0.917 ± 0.027	0.874 ± 0.046	3	1.79	3.33	2.51
HCC38 BREAST	0.703 ± 0.16	0.805 ± 0.24	0.971 ± 0.31	0.705 ± 0.14	0.528 ± 0.1	0.607 ± 0.047	0.492 ± 0.22	0.45 ± 0.035	0.824 ± 0.32	0.996 ± 0.18	1.01 ± 0.2	1.07 ± 0.23	0.983 ± 0.034	0.925 ± 0.15	0.895 ± 0.085	0.855 ± 0.12		2.79	4.36	2.17
HCC70 BREAST	1.07 ± 0.061	1.12 ± 0.037	1.16 ± 0.098	1.1 ± 0.11	1.12 ± 0.12	1.11 ± 0.017	1.12 ± 0.11	1.12 ± 0.052	1.02 ± 0.083	1.09 ± 0.11	1.07 ± 0.026	1.13 ± 0.067	1.13 ± 0.029	1.12 ± 0.11	0.871 ± 0.091	0.829 ± 0.12	3.69	2.81	3.54	2.21
HMLE3 BREAST	1.13 ± 0.039	1 ± 0.042	1.11 ± 0.051	1.07 ± 0.051	0.986 ± 0.17	1.03 ± 0.082	0.856 ± 0.14	0.879 ± 0.056	0.921 ± 0.048	0.956 ± 0.028	0.97 ± 0.036	0.969 ± 0.059	0.986 ± 0.047	0.984 ± 0.078	0.775 ± 0.054	0.734 ± 0.037		2.46	3.48	2.48
HMT3552 BREAST	0.99 ± 0.063	0.968 ± 0.043	0.95 ± 0.031	1 ± 0.0095	0.817 ± 0.037	0.84 ± 0.022	0.78 ± 0.042	0.723 ± 0.079	1.1	1.12	1.1	1.02	1.18	1.1	1.07	1.09	3.05	1.53	3.67	2.14
HS57T BREAST	0.972 ± 0.021	0.994 ± 0.063	1.03 ± 0.09	0.979 ± 0.055	0.929 ± 0.077	0.971 ± 0.06	0.881 ± 0.03	0.865 ± 0.038	1.07 ± 0.023	1.11 ± 0.083	1.06 ± 0.039	1.02 ± 0.057	1.09 ± 0.046	1.054 ± 0.0092	0.889 ± 0.017	0.843 ± 0.075				
HS578T BREAST	0.959 ± 0.13	0.875 ± 0.042	0.912 ± 0.11	0.927 ± 0.17	0.892 ± 0.062	0.937 ± 0.067	0.763 ± 0.059	0.801 ± 0.13	1.16 ± 0.15	1.03 ± 0.2	1.14 ± 0.064	1.33 ± 0.062	1.14 ± 0.13	1.21 ± 0.058	1.09 ± 0.069	0.972 ± 0.016		1.56	3.09	2.37
